# Source: publication PMC12386283, “Elucidating the Complex Structural and Molecular Mechanisms Driving P-Glycoprotein-Mediated Transport of Cardiac Glycosides” (International Journal of Molecular Sciences, 2025)
# What was measured:
# [1] = system: Pgp mutants F336A and I340A; conditions: cited from earlier work
# [2] = target: T1, P-glycoprotein (wild-type mouse Pgp, MDR3) (Mus musculus, UniProt P21447); experiment: in vitro; conditions: mouse, pH 7.4
# Protocol: Overexpression of wild-type mouse Pgp (MDR3) was achieved by using genetically engineered strains of Pichia pastoris with a 6X histidine tag. The cells were cultured in glycerol media, and methanol was used to induce the overexpression of Pgp at the Bioexpression and Fermentation Facility (BFF), University of Georgia, Athens, GA, USA. A repeated cycle of freezing using liquid nitrogen, blending, and thawing was used to lyse the Pgp-expressing P. pastoris cells. The protein was purified using affinity chromatography with nickel-nitrilotriacetic acid (Ni-NTA) resin (Thermo Fisher Scientific, Waltham, MA, USA). DDM was used to solubilize the protein, and the solution was concentrated using Amicon Ultra-15 100 kDa cut-off filters (EMD Millipore, Billerica, MA, USA). […] The purified DDM-solubilized Pgp was aliquoted and stored at −80 °C for future analysis.
# Pgp was reconstituted into liposomes as previously described. Briefly, liposomes comprising 80% (w/v) Avanti Escherichia coli total lipid extract and 20% (w/v) cholesterol were dissolved in chloroform to achieve a final concentration of 10 mg mL^−1, and the volume was adjusted to 10 mL. […] The solution was subjected to ten cycles of freeze–thaw using liquid nitrogen and a water bath (67 °C), resulting in the formation of liposomes with varying sizes, and extruded eleven times in a LIPEX extruder (Northern Lipids, Burnaby, BC, Canada) to produce identical-sized liposomes, using a 400 nm cut-off filter.
# (§1) Approximately 40 µL of DDM-solubilized Pgp was dialyzed for two hours against HEPES buffer (20 mM HEPES, 100 mM NaCl, 5 mM MgCl2, 2 mM DTT, pH 7.4) to remove any remnants of the detergent, DDM. The dialyzed protein was mixed with 4 mg mL^−1 of the extruded liposomes and incubated on ice for at least one hour to allow Pgp to integrate into the liposomes. To remove any additional detergent and further facilitate Pgp integration into the liposome, the solution was dialyzed for a second time for two hours in HEPES buffer to form proteoliposomes, and the concentration of Pgp reconstituted in liposomes was determined using the Bio-Rad DC Protein assay. Finally, the solution was aliquoted and stored at −80 °C for future use.
# The Chifflet method is a colorimetric method that measures the amount of free inorganic phosphate (Pi) through the formation of ammonium molybdate and Pi complex, which produces a strong absorbance at 850 nm. The absorbance was measured on a 96-well plate using a CLARIOstar microplate reader (BMG Labtech, Ortenberg, Germany). […] The final concentrations of the proteoliposome and ATP were maintained at 50 nM and 3.2 mM, respectively. Orthovanadate was used as a control and run in parallel to the samples. Finally, the kinetic curves for ATPase activity were fit to a modified Michaelis-Menten equation (Equation (1)). Igor 6.2 Pro software (Wavemetrics, Tigard, OR, USA) was used for data analysis.(1) V=VmaxS/Km+S+Vbasal where V = Rate of ATP hydrolysis; Vmax = Maximum velocity of ATP hydrolysis; [S] = Substrate concentration; Km = Michaelis–Menten constant; and Vbasal = basal ATPase activity.
# Pgp = conditions: MDCK cell lines overexpressing Pgp; cited from earlier work
# [3] = target: T1, P-glycoprotein (wild-type mouse Pgp, MDR3); experiment: in vitro; conditions: mouse, pH 7.4; remark: listed apart in the source
# Protocol: Overexpression of wild-type mouse Pgp (MDR3) was achieved by using genetically engineered strains of Pichia pastoris with a 6X histidine tag. The cells were cultured in glycerol media, and methanol was used to induce the overexpression of Pgp at the Bioexpression and Fermentation Facility (BFF), University of Georgia, Athens, GA, USA. A repeated cycle of freezing using liquid nitrogen, blending, and thawing was used to lyse the Pgp-expressing P. pastoris cells. The protein was purified using affinity chromatography with nickel-nitrilotriacetic acid (Ni-NTA) resin (Thermo Fisher Scientific, Waltham, MA, USA). DDM was used to solubilize the protein, and the solution was concentrated using Amicon Ultra-15 100 kDa cut-off filters (EMD Millipore, Billerica, MA, USA). The concentration of purified protein was measured at 280 nm using a calculated extinction coefficient of 1.28 per mg mL^−1 on a Nanodrop (DeNovix, Wilmington, DE, USA). […] The purified DDM-solubilized Pgp was aliquoted and stored at −80 °C for future analysis.
# as §1
# The intrinsic tryptophan residues in the protein can be selectively excited and emitted at 295 nm and 330 nm wavelengths, respectively. The binding of the drug to the protein can alter the spatial arrangement encountered by the tryptophan residue(s) and thereby regulate the fluorescence intensity of the protein [52]. […] Proteoliposomes diluted to 1 µM in Chifflet buffer containing 2 mM DTT were titrated against varying concentrations of drugs. The intrinsic protein fluorescence was measured at 330 nm upon excitation at 295 nm using an Olis DM 45 spectrophotometer (Olis Corporation, Bogart, GA, USA). To nullify the effect of Rayleigh bands on the observed spectra, a 10 nm band-pass filter was inserted on the excitation and emission paths of the spectrophotometer. The drug-induced quenching of intrinsic Pgp fluorescence was corrected (Fcorrected) for factors such as dilution, background fluorescence, and inner filter effects using the equation mentioned below (Equation (2)).(2) Fcorrected=F−B10^εexbex+εembemQ/2 where Fcorrected = Drug-induced quenching of intrinsic Pgp fluorescence; F = Emitted intrinsic Pgp fluorescence at 330 nm; [Q] = Concentration of drug; εex and εem = Excitation and emission extinction coefficients, respectively; bex and bem = Path lengths of excitation (0.4 mm) and emission (10 mm) wavelengths, respectively; and B = Background fluorescence measured from drug and solvent.
# The resulting quenching curves were fit using a modified Stern-Volmer equation (Equation (3)), as follows:(3) Fcorrected=FOcorrected/1+KsvQ+Funquenched where Fcorrected = The corrected fluorescence; F0(corrected) = Fluorescence recorded in the absence of drug; [Q] = Concentration of drug; Ksv = Stern–Volmer constant; and F(unquenched) = unquenched fluorescence.
# T1 sequence (P21447 whole entry): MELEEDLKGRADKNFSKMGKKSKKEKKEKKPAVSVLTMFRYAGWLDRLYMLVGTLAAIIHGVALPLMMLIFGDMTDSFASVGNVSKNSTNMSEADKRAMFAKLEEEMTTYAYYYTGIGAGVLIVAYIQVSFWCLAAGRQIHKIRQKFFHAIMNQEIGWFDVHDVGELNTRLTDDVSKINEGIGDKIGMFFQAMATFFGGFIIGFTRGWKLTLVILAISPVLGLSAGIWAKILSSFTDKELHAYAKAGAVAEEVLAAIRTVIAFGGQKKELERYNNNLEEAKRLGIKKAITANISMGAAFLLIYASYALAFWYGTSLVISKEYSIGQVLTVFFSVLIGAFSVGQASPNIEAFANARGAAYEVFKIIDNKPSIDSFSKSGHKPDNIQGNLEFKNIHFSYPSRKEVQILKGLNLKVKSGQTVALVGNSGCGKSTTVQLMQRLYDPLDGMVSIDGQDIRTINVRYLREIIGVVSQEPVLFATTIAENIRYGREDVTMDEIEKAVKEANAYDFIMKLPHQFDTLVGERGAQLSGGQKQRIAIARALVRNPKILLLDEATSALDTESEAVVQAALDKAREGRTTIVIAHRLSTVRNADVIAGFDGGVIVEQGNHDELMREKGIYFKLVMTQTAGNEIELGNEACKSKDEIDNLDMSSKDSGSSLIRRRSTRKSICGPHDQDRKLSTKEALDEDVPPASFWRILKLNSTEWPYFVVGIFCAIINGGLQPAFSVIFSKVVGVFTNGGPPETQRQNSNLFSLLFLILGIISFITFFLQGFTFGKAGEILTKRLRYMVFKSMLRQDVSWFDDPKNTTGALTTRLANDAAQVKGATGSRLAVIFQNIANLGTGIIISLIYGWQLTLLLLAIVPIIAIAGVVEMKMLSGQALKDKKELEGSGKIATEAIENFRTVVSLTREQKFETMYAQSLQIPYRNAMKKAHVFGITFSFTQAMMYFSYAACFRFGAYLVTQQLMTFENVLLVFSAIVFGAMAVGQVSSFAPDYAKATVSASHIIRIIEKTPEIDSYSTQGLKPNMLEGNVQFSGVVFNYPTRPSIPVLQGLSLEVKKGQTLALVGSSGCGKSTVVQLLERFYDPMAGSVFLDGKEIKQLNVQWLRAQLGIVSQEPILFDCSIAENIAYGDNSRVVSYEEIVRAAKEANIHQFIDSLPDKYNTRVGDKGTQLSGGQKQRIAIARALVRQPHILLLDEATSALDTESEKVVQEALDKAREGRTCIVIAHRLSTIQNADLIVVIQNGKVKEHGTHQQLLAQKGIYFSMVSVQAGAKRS
compound,measurement,setting,value
C[C@H]1O[C@@H](O[C@H]2[C@@H](O)C[C@H](O[C@H]3[C@@H](O)C[C@H](O[C@H]4CC[C@@]5(C)[C@H](CC[C@@H]6[C@@H]5C[C@@H](O)[C@]5(C)[C@@H](C7=CC(=O)OC7)CC[C@]65O)C4)O[C@@H]3C)O[C@@H]2C)C[C@H](O)[C@@H]1O [Digoxin],Decrease of digoxin-Pgp interaction for mutants compared to wild-type Pgp,[1],two- to four-fold
"C[C@]12CC[C@H](O)C[C@H]1CC[C@@H]1[C@@H]2CC[C@]2(C)[C@@H](C3=CC(=O)OC3)CC[C@]12O [Digitoxigenin, (3β,5β)-3,14-Dihydroxy-card-20(22)-enolide]",Km,[2],67.6 ± 19.8 µM
same,Intracellular accumulation in Pgp-overexpressing cells,Pgp,no significant difference
"C[C@]12CC[C@H](O)C[C@H]1CC[C@@H]1[C@@H]2C[C@@H](O)[C@]2(C)[C@@H](C3=CC(=O)OC3)CC[C@]12O [Digoxigenin, 3β,12β,14-Trihydroxy-5β,20(22)-cardenolide]",Kd,[3],10.16 ± 0.01 µM
